Read-outs that look alike come from different tables or passages of the source.

The text below walks through data of article PMC4513247 (Molecular pharmacology, 2010).

Series [1] deals with NET. The following applies: NET versus SERT; no reference given; cited from earlier work.
The target of series [2] is T1, DAT (Homo sapiens, UniProt Q01959). The following applies: DAT versus SERT; no reference given; cited from earlier work.
For series [3], the target named is SERT^WT (Homo sapiens, UniProt P31645). In kind it is binding.
Sequence of SERT^WT (P31645 whole entry): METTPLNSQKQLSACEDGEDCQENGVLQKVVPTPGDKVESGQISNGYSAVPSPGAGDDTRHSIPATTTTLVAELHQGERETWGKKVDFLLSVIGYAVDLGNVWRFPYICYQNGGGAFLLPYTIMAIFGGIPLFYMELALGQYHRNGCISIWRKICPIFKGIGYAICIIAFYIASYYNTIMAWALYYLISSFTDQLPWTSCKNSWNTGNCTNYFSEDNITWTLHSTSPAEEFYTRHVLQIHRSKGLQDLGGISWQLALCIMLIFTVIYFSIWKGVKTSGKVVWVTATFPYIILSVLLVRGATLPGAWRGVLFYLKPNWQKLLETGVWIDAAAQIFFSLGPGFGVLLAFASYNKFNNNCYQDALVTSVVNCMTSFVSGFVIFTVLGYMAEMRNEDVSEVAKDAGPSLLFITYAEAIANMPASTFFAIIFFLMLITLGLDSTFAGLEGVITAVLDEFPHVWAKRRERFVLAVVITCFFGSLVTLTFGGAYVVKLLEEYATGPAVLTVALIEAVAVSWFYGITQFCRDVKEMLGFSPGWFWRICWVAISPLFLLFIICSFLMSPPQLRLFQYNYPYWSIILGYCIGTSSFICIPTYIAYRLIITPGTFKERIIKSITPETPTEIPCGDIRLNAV
The target of series [4] is T1, DAT. In kind it is binding. The following applies: ~10 nM [3H]WIN35,428, fixed concentrations of carbamazepine.
For series [5], the system named is NCCc1c[nH]c2ccc(O)cc12. Put plainly: cells, lysate or membranes. The following applies: other: SERT^WT; [3H]5-HT saturation uptake, HEK293 cells.
[6] abbreviates: SERT, ~2 nM [3H]imipramine, fixed concentrations of carbamazepine.

T1 sequence (Q01959 whole entry, species assumed): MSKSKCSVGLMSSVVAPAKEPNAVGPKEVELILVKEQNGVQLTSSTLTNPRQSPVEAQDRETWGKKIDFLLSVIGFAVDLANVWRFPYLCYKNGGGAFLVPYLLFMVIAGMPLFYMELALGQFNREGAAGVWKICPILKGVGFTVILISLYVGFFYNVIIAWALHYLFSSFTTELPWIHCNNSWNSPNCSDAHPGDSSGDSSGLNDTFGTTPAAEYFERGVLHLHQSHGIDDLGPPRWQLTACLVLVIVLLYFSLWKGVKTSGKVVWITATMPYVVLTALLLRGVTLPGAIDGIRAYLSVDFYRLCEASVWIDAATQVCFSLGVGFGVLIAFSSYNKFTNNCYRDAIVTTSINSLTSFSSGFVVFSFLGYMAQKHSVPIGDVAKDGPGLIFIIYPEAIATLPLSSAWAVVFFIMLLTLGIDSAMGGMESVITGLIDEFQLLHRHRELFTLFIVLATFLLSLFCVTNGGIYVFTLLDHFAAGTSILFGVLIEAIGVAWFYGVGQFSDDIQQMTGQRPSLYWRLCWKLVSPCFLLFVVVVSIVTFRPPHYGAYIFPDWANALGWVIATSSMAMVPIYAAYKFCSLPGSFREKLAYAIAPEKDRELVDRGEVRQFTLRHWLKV

Take `CN(C)CCCN1c2ccccc2CCc2ccccc21` [imipramine]: the “affinity lower than for SERT” value in series [1] is “approximately 10 fold”; in series [2], about 1000 fold.
Take `CC(N)Cc1ccc(Cl)cc1` (stereo not shown) [para-chloroamphetamine]: the “binding together with carbamazepine (Dixon plot of [3H]imipramine binding)” value in series [3] (setting [6]) was “mutually exclusive”.
Turning to `CN[C@@H](C)Cc1ccc2c(c1)OCO2` [MDMA, s-(+)-3,4-methylenedioxy-methamphetamine], the “binding together with carbamazepine (Dixon plot of [3H]imipramine binding)” value in series [3] is “mutually exclusive”.
As for ibogaine, the “binding together with carbamazepine (Dixon plot of [3H]imipramine binding)” value in series [3] (setting [6]) is “intersected”. For the same compound, in series [4], the “binding together with carbamazepine (Dixon plot of [3H]WIN35,428 binding)” value is recorded as “intersected”.
Broadly, the Km is the substrate concentration at which the rate is half of its maximum. SERT^WT (Homo sapiens): the Michaelis-Menten constant (Km) in series [5] amounted to 1.2 ± 0.8 µM.
